US20120107284A1, “Stem cells for transplantation and methods for production thereof” (priority 2006, published 2012)

Assays:
[1] = system: Renilla luciferase controlled by rtTA2^s-M24C5G; assay: Dual Tet-system reporter assay, Renilla luciferase, HeLa HLRF33/1141 cotransfected with cTA2D-5 and rtTA2s-M24C5G; assay type: cell-based; conditions: HeLa cells (HLRF33/1141), 24 h incubation, 1 μg/ml
Description: (§1) B: Regulatory properties. HeLa cells (HLRF33/1141) were cotransfected with two plasmids encoding the transregulators cTA2^D-5 and rtTA2^s-M24C5G. Reporter gene expression was scored after 24 h incubation with 1 μg/ml of either cmt3 or dox or both. Luciferase activities were determined from cell extracts and represent the means of triplicate samples with standard deviations given in arbitrary light units (ALU; defined as relative light units per mg of total cell protein corrected for transfection efficiency). Expression of Renilla luciferase controlled by rtTA2^s-M24C5G is increased about 1000-fold and only in the presence of dox (columns 3 and 4). Addition of cmt3 leads to a ˜100-fold decrease in firefly luciferase activity, controlled by cTA2^D-5 (columns 2 and 4), while expression of firefly luciferase is only slightly, less than 2-fold, reduced in the presence of dox. […] The regulatory system is thus functional and can be used for target gene expression in NCSCs.
(§2) Recently two transcription factors have been constructed—cTA2^D-5 and rtTA2^s-M24C5G—with exclusive specificities for DNA binding (wt TRE/4C5G TRE), effector recognition (cmt3/dox) and homodimer formation (class D/class B) (Dr. Christian Berens, Erlangen University). All these components were tested for the first time in eukaryotic cells to determine their regulatory properties (C. Berens, unpublished). […]

[2] = system: firefly luciferase activity, controlled by cTA2^D-5; assay: Dual Tet-system reporter assay, firefly luciferase, HeLa HLRF33/1141 cotransfected with cTA2D-5 and rtTA2s-M24C5G; assay type: cell-based; conditions: HeLa cells (HLRF33/1141), 24 h incubation, 1 μg/ml
Description: as §1, §2

[3] = system: dorsal root ganglion neurons; assay: Functionality of the Tet-system in vivo: DOX to pregnant Sox10-rtTA mice mated with TRE-Aml1/Runx1 males; conditions: [Sox10-rtTA+TRE-Aml1/Runx1] pups; DOX in drinking water during pregnancy days 7-8 and 11.5-14
Text: FIG. 8. Abnormalities in offspring of pregnant Sox10-rtTA mice which had been mated with TRE-Aml1/Runx1 males and treated with DOX during pregnancy days 7-8 and 11.5-14. Pups with the genotype [Sox10-rtTA+TRE-Aml1/Runx1] are smaller than normal and display pigment defects (upper left), megacolon (lower left), and a reduced size of dorsal root ganglia (upper and lower right).
FIG. 9. The number of dorsal root ganglion neurons is reduced compared to control (1) by about 50% in [Sox10-rtTA+TRE-Aml1/Runx1] pups from Sox10-rtTA mice, which hade been mated with TRE-Aml1/Runx1 males, and treated with DOX during pregnancy days 7-8 and 11.5-14 (2).
The functionality of the Tet-system in vivo was first confirmed. Sox10-rtTA female mice were bred with TRE-Aml1A/Runx1 males and DOX was given in the drinking water to the pregnant females pregnancy days 7 to 8 and 11.5 to 14, which correspond to the period NCSC migration. […] The number of DRG neurons was reduced by about 50% (FIG. 9).

SMILES	Increase in expression of Renilla luciferase controlled by rtTA2^s-M24C5G [1]	Decrease in firefly luciferase activity controlled by cTA2^D-5 [2]	Reduction of the number of dorsal root ganglion neurons compared to control [3]
C[C@H]1c2cccc(O)c2C(=O)C2=C(O)[C@]3(O)C(=O)C(C(N)=O)=C(O)[C@@H](N(C)C)[C@@H]3[C@@H](O)[C@@H]21 [DOX, doxycycline]	about 1000 fold	less than 2 fold	about 50%
NC(=O)C1=C(O)C[C@@H]2C[C@@H]3Cc4cccc(O)c4C(=O)C3=C(O)[C@]2(O)C1=O [cmt3]		~100 fold	
